{"source": "patent US20200338045A1", "about": "“ISOINDOLINE COMPOSITIONS AND METHODS FOR TREATING NEURODEGENERATIVE DISEASE” (priority 2017, published 2020)", "key": {"[1]": {"assay": "Phase 1 SAD safety (adverse events, laboratory, ECG)", "assay_type": "in vivo, human", "method": "Part A was a single ascending dose cohort study in which healthy, young subjects (less than 65 years old) received one dose of study drug in the morning after an overnight fast. Cohort dosing started at 10 mg and increased to 30 mg, 90 mg, 180 mg, 450 mg, and 1120 mg in subsequent cohorts. Six drug-treated and two placebo-treated subjects were randomized in each cohort. A seventh cohort of six subjects each received a single 90 mg dose of drug 30 min. after a meal. Following completion of all safety assessments and blood draws for PK analyses, subjects were discharged on Day 3.\nSafety variables, including incidence of adverse events (AEs), vital signs, clinical laboratory findings, 12-lead electrocardiographs (ECGs), physical examination, and affective and cognitive measures (Part B only), were summarized for all subjects who received study drug."}, "[2]": {"tested_on": "aged transgenic mouse models of AD", "assay": "Aged transgenic mouse models of AD (cognition, synapses, CSF proteins)", "assay_type": "in vivo"}}, "note": "Entries after “also recorded” stand apart in the source; their conditions may differ."}
{"smiles": "CC(C)(C)Oc1cc(CCC(C)(C)N2Cc3ccc(S(C)(=O)=O)cc3C2)ccc1O", "note": "[CT1812]", "values": [{"measurement": "ECG parameters or changes", "setting": "[1]; SAD", "value": "No ECG parameters or changes were assessed as clinically significant"}, {"measurement": "deaths or serious adverse events", "setting": "[1]; SAD", "value": "no deaths or other serious adverse events"}, {"measurement": "All TEAEs, number of subjects", "setting": "[1]; SAD Total Active (n = 42)", "value": 18}, {"measurement": "Headache, % of subjects", "setting": "[1]; SAD Total Active (n = 42)", "value": "(14%)"}, {"measurement": "Headache, number of subjects", "setting": "[1]; SAD Total Active (n = 42)", "value": 6}, {"measurement": "Nausea, % of subjects", "setting": "[1]; SAD Total Active (n = 42)", "value": "(14%)"}, {"measurement": "Nausea, number of subjects", "setting": "[1]; SAD Total Active (n = 42)", "value": 6}, {"measurement": "All TEAEs, % of subjects", "setting": "[1]; single 10 mg fasted (n = 6)", "value": "(33%)"}, {"measurement": "All TEAEs, number of subjects", "setting": "[1]; single 10 mg fasted (n = 6)", "value": 2}, {"measurement": "Headache, % of subjects", "setting": "[1]; single 10 mg fasted (n = 6)", "value": "(50%)"}, {"measurement": "Headache, number of subjects", "setting": "[1]; single 10 mg fasted (n = 6)", "value": 3}, {"measurement": "Nausea, % of subjects", "setting": "[1]; single 10 mg fasted (n = 6)", "value": "(17%)"}, {"measurement": "Nausea, number of subjects", "setting": "[1]; single 10 mg fasted (n = 6)", "value": 1}, {"measurement": "All TEAEs, % of subjects", "setting": "[1]; single 30 mg fasted (n = 6)", "value": "(67%)"}, {"measurement": "All TEAEs, number of subjects", "setting": "[1]; single 30 mg fasted (n = 6)", "value": 4}, {"measurement": "All TEAEs, % of subjects", "setting": "[1]; single 90 mg fed (n = 6)", "value": "(33%)"}, {"measurement": "All TEAEs, number of subjects", "setting": "[1]; single 90 mg fed (n = 6)", "value": 2}, {"measurement": "Headache, % of subjects", "setting": "[1]; single 90 mg fed (n = 6)", "value": "(17%)"}, {"measurement": "Headache, number of subjects", "setting": "[1]; single 90 mg fed (n = 6)", "value": 1}, {"measurement": "All TEAEs, % of subjects", "setting": "[1]; single 180 mg fasted (n = 6)", "value": "(33%)"}, {"measurement": "All TEAEs, number of subjects", "setting": "[1]; single 180 mg fasted (n = 6)", "value": 2}, {"measurement": "All TEAEs, % of subjects", "setting": "[1]; single 450 mg fasted (n = 6)", "value": "(67%)"}, {"measurement": "All TEAEs, number of subjects", "setting": "[1]; single 450 mg fasted (n = 6)", "value": 4}, {"measurement": "Headache, % of subjects", "setting": "[1]; single 450 mg fasted (n = 6)", "value": "(17%)"}, {"measurement": "Headache, number of subjects", "setting": "[1]; single 450 mg fasted (n = 6)", "value": 1}, {"measurement": "Nausea, % of subjects", "setting": "[1]; single 450 mg fasted (n = 6)", "value": "(33%)"}, {"measurement": "Nausea, number of subjects", "setting": "[1]; single 450 mg fasted (n = 6)", "value": 2}, {"measurement": "All TEAEs, % of subjects", "setting": "[1]; single 1120 mg fasted (n = 6)", "value": "(67%)"}, {"measurement": "All TEAEs, number of subjects", "setting": "[1]; single 1120 mg fasted (n = 6)", "value": 4}, {"measurement": "Headache, % of subjects", "setting": "[1]; single 1120 mg fasted (n = 6)", "value": "(17%)"}, {"measurement": "Headache, number of subjects", "setting": "[1]; single 1120 mg fasted (n = 6)", "value": 1}, {"measurement": "Nausea, % of subjects", "setting": "[1]; single 1120 mg fasted (n = 6)", "value": "(50%)"}, {"measurement": "Nausea, number of subjects", "setting": "[1]; single 1120 mg fasted (n = 6)", "value": 3}, {"measurement": "tolerability, single dose", "setting": "[1]; single dose 10 mg to 1120 mg, healthy young subjects", "value": "safe and well tolerated"}, {"measurement": "cognitive performance / memory", "setting": "[2]; aged transgenic mouse models of AD", "value": "restoring normal cognitive performance; also recorded: restores cognitive function; also recorded: restores memory to normal"}, {"measurement": "inflammatory protein expression in CSF", "setting": "[2]; chronic treatment of aged transgenic mice, efficacious doses, LC/MSMS", "value": "significantly reduces"}]}
